Assays:
[1] = molecular target: picrotoxin binding site of GABAA receptors; settings: membranes isolated from the cortices of rat brains; Table 1 of WO 2016/061527; read-out: IC50 in the TBPS displacement assay; cited from earlier work
[2] = molecular target: T1, α1β2γ2 GABAA receptor (Homo sapiens, UniProt P14867+P18507+P47870); settings: 10 μM neurosteroid, GABA 2 μM (EC20), LTK cells; Table 2 of WO 2016/061527; cited from earlier work
T1 construct: expressed in transfected cells

[3] = molecular target: T2, α4β3δ GABAA receptor (Homo sapiens, UniProt O14764+P28472+P48169); parameters: expressed in transfected cells; host or cells: CHO cells (transient); settings: 10 μM neurosteroid, GABA 2 μM (EC20), CHO cells; Table 2 of WO 2016/061527; cited from earlier work
[4] = molecular target: T3, α1β1γ2 GABAA receptor (Homo sapiens, UniProt P14867+P18505+P18507); test: FLIPR modulation of GABAA receptor subtype in expressing cells; type: cell-based; settings: cells exposed to GABA plus compound, — = value not measurable
T3 construct: expressed in transfected cells
Protocol: (§1) Cells expressing the indicated GABAA receptor subtype were exposed to gamma-aminobutyric acid in the presence of varying concentrations of either CV-10155 or SPNC-019, calcium flux was measured using a fluorometric imaging plate reader (FLIPR), and EC50 values for compounds were determined.

[5] = molecular target: T1, α1β2γ2 GABAA receptor; test: as above; type: cell-based; settings: cells exposed to GABA plus compound, — = value not measurable
Protocol: as §1

[6] = molecular target: T4, α1β3γ2 GABAA receptor (Homo sapiens, UniProt P14867+P18507+P28472); test: as above; type: cell-based; settings: cells exposed to GABA plus compound, — = value not measurable
T4 construct: expressed in transfected cells
Protocol: as §1

[7] = molecular target: T5, α2β1γ2 GABAA receptor (Homo sapiens, UniProt P18505+P18507+P47869); test: as above; type: cell-based; settings: cells exposed to GABA plus compound, — = value not measurable
T5 construct: expressed in transfected cells
Protocol: as §1

[8] = molecular target: T6, α2β2γ2 GABAA receptor (Homo sapiens, UniProt P18507+P47869+P47870); test: as above; type: cell-based; settings: cells exposed to GABA plus compound, — = value not measurable
T6 construct: expressed in transfected cells
Protocol: as §1

[9] = molecular target: T7, α2β3γ2 GABAA receptor (Homo sapiens, UniProt P18507+P28472+P47869); test: as above; type: cell-based; settings: cells exposed to GABA plus compound, — = value not measurable
T7 construct: expressed in transfected cells
Protocol: as §1

[10] = molecular target: T8, α3β1γ2 GABAA receptor (Homo sapiens, UniProt P18505+P18507+P34903); test: as above; type: cell-based; settings: cells exposed to GABA plus compound, — = value not measurable
T8 construct: expressed in transfected cells
Protocol: as §1

[11] = molecular target: T9, α3β2γ2 GABAA receptor (Homo sapiens, UniProt P18507+P34903+P47870); test: as above; type: cell-based; settings: cells exposed to GABA plus compound, — = value not measurable
T9 construct: expressed in transfected cells
Protocol: as §1

[12] = molecular target: T10, α3β3γ2 GABAA receptor (Homo sapiens, UniProt P18507+P28472+P34903); test: as above; type: cell-based; settings: cells exposed to GABA plus compound, — = value not measurable
T10 construct: expressed in transfected cells
Protocol: as §1

[13] = molecular target: T11, α4β1γ2 GABAA receptor (Homo sapiens, UniProt P18505+P18507+P48169); test: as above; type: cell-based; settings: cells exposed to GABA plus compound, — = value not measurable
T11 construct: expressed in transfected cells
Protocol: as §1

[14] = molecular target: T12, α4β3γ2 GABAA receptor (Homo sapiens, UniProt P18507+P28472+P48169); test: as above; type: cell-based; settings: cells exposed to GABA plus compound, — = value not measurable
T12 construct: expressed in transfected cells
Protocol: as §1

[15] = molecular target: T13, α5β1γ2 GABAA receptor (Homo sapiens, UniProt P18505+P18507+P31644); test: as above; type: cell-based; settings: cells exposed to GABA plus compound, — = value not measurable
T13 construct: expressed in transfected cells
Protocol: as §1

[16] = molecular target: T14, α5β2γ2 GABAA receptor (Homo sapiens, UniProt P18507+P31644+P47870); test: as above; type: cell-based; settings: cells exposed to GABA plus compound, — = value not measurable
T14 construct: expressed in transfected cells
Protocol: as §1

[17] = molecular target: T15, α5β3γ2 GABAA receptor (Homo sapiens, UniProt P18507+P28472+P31644); test: as above; type: cell-based; settings: cells exposed to GABA plus compound, — = value not measurable
T15 construct: expressed in transfected cells
Protocol: as §1

[18] = molecular target: T16, α6β1γ2 GABAA receptor (Homo sapiens, UniProt P18505+P18507+Q16445); test: as above; type: cell-based; settings: cells exposed to GABA plus compound, — = value not measurable
T16 construct: expressed in transfected cells
Protocol: as §1

[19] = molecular target: T17, α6β2γ2 GABAA receptor (Homo sapiens, UniProt P18507+P47870+Q16445); test: as above; type: cell-based; settings: cells exposed to GABA plus compound, — = value not measurable
T17 construct: expressed in transfected cells
Protocol: as §1

[20] = molecular target: T18, α6β3γ2 GABAA receptor (Homo sapiens, UniProt P18507+P28472+Q16445); test: as above; type: cell-based; settings: cells exposed to GABA plus compound, — = value not measurable
T18 construct: expressed in transfected cells
Protocol: as §1

[21] = system: GABAA receptor subtypes; test: FLIPR panel of 18 GABAA receptor subtypes, overall statement; type: cell-based; settings: 18 subtypes
Protocol: as §1
The only structural difference between CV-10155 and SPNC-019 is the stereochemical configuration of the hydroxyl and methyl groups attached to the carbon atom at position 3 of the steroid core. […] The results further indicate that the isomeric purity of neurosteroid compositions greatly impacts the utility of such compositions as therapeutic agents.

[22] = molecular target: T2, α4β3δ GABAA receptor; test: FLIPR modulation of GABAA receptor subtype in expressing cells; type: cell-based; parameters: expressed in transfected cells
Protocol: as §1

T2 sequence (P48169 36-554): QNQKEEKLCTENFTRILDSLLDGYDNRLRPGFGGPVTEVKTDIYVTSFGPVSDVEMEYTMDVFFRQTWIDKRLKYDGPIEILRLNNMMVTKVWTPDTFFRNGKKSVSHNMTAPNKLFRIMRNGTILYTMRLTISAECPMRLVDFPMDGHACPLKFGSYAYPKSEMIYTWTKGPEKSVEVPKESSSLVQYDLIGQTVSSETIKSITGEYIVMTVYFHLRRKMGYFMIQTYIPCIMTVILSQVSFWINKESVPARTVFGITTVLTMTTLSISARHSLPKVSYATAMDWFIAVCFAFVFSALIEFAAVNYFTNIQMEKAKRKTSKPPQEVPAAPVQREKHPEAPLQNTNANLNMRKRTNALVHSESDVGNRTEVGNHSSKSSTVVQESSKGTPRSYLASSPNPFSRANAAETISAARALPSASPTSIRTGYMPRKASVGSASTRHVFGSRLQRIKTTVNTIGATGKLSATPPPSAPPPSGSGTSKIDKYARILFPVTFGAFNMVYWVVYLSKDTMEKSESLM
T2 sequence (P28472 26-473): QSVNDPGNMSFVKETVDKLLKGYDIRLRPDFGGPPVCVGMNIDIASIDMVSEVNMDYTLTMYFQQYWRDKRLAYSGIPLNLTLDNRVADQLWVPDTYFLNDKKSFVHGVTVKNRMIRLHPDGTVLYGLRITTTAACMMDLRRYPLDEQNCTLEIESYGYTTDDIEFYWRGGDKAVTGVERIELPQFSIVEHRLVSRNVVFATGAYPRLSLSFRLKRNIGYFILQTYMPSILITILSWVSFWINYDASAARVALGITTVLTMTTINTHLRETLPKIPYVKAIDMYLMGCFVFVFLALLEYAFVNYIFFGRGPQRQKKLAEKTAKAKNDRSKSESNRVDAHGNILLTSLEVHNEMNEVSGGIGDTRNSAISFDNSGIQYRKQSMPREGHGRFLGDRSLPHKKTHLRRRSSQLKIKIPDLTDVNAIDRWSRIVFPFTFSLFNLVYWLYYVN
T2 sequence (O14764 25-452): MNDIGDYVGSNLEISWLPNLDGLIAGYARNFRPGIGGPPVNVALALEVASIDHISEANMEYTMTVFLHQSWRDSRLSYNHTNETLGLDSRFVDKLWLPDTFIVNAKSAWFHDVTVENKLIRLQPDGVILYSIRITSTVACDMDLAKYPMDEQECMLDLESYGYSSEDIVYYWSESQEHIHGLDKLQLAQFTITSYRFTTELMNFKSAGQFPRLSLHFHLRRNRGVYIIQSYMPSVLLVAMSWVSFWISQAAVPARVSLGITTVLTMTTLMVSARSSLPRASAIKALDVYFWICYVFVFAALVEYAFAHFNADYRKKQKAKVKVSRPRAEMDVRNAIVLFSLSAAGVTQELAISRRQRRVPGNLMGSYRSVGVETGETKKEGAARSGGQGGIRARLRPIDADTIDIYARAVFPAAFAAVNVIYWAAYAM
T14 sequence (P31644 32-462): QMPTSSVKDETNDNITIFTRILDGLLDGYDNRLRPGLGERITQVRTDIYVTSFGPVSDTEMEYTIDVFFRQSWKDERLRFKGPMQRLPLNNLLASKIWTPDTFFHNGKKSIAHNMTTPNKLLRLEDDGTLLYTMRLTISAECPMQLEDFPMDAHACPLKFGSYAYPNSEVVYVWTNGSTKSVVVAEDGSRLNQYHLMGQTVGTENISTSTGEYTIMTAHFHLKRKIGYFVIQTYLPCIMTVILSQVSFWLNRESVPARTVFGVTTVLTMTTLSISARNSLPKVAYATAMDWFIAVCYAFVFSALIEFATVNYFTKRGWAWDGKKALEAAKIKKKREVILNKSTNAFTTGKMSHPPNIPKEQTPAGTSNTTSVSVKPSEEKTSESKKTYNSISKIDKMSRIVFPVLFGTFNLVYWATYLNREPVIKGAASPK
T14 sequence (P47870 25-512 limits assumed): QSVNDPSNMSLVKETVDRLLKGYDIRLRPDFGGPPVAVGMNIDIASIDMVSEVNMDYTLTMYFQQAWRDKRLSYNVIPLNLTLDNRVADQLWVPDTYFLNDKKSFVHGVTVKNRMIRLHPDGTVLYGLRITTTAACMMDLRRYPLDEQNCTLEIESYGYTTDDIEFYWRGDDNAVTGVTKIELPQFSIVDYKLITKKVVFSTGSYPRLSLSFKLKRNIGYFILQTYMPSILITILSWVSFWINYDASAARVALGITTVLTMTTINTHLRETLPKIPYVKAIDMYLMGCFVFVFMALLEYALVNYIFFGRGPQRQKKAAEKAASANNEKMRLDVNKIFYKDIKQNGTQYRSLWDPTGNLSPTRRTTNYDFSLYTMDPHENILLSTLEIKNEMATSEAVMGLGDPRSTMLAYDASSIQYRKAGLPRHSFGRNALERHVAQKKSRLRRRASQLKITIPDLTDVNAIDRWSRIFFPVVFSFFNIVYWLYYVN
T14 sequence (P18507 40-475): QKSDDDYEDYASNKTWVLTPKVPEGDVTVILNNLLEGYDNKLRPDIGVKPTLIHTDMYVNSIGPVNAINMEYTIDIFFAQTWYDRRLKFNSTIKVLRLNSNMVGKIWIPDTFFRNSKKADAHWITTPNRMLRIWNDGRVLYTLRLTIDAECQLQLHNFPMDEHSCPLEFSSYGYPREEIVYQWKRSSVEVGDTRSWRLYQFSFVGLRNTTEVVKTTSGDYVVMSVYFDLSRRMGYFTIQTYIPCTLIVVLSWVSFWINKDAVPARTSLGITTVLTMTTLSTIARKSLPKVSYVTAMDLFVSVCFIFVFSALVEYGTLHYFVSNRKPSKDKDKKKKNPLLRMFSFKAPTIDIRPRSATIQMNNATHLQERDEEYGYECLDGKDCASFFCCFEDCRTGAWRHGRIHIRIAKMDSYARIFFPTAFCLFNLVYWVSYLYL
T15 sequence (P31644 32-462): as the sequence (P31644 32-462) above
T15 sequence (P28472 26-473): as the sequence (P28472 26-473) above
T15 sequence (P18507 40-475): as the sequence (P18507 40-475) above
T1 sequence (P14867 28-456): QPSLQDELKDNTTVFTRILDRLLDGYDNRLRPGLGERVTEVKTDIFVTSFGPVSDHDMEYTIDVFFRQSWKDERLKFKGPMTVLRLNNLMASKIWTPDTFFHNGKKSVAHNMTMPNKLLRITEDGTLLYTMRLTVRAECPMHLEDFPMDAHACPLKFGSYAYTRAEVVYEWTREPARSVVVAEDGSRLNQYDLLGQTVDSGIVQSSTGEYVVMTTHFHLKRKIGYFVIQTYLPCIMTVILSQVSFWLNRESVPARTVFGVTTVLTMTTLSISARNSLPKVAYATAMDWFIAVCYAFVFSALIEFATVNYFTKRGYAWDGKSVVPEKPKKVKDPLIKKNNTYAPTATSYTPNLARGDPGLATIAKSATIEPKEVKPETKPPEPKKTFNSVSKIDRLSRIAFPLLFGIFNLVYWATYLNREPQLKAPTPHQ
T1 sequence (P47870 25-512 limits assumed): as the sequence (P47870 25-512 limits assumed) above
T1 sequence (P18507 40-475): as the sequence (P18507 40-475) above
T18 sequence (Q16445 20-453): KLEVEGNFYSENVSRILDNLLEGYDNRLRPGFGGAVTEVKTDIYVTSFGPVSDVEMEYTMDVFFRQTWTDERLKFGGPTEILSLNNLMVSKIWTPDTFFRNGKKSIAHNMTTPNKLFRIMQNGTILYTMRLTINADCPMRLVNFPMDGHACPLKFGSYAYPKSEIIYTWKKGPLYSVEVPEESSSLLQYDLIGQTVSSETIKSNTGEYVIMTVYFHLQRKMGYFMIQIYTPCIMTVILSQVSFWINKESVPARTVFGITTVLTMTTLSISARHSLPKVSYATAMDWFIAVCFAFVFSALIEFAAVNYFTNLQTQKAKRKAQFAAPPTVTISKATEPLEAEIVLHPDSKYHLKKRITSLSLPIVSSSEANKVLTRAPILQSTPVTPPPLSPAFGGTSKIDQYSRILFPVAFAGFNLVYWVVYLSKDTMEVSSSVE
T18 sequence (P28472 26-473): as the sequence (P28472 26-473) above
T18 sequence (P18507 40-475): as the sequence (P18507 40-475) above
T13 sequence (P31644 32-462): as the sequence (P31644 32-462) above
T13 sequence (P18505 26-474): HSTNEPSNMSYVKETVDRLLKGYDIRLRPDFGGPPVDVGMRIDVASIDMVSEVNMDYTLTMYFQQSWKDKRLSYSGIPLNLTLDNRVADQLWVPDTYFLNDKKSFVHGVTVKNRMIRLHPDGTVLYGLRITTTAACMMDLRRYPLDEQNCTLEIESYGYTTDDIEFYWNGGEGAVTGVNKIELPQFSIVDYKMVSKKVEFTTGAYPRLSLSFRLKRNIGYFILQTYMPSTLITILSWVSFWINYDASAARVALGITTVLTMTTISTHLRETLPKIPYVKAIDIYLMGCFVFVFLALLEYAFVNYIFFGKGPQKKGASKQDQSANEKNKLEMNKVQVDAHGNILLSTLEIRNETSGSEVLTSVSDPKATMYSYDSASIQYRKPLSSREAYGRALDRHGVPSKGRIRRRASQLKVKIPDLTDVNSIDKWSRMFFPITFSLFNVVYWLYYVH
T13 sequence (P18507 40-475): as the sequence (P18507 40-475) above
T12 sequence (P48169 36-554): as the sequence (P48169 36-554) above
T12 sequence (P28472 26-473): as the sequence (P28472 26-473) above
T12 sequence (P18507 40-475): as the sequence (P18507 40-475) above
T11 sequence (P48169 36-554): as the sequence (P48169 36-554) above
T11 sequence (P18505 26-474): as the sequence (P18505 26-474) above
T11 sequence (P18507 40-475): as the sequence (P18507 40-475) above
T4 sequence (P14867 28-456): as the sequence (P14867 28-456) above
T4 sequence (P28472 26-473): as the sequence (P28472 26-473) above
T4 sequence (P18507 40-475): as the sequence (P18507 40-475) above

C[C@@]1(O)CC[C@@]2(C)[C@H](CC[C@@H]3[C@@H]2CC[C@]2(C)[C@@H](C(=O)Cn4cc(C#N)cn4)CC[C@@H]32)C1 [Compound 10]
IC50 [1]: < 10 nM

C[C@@]1(O)CC[C@@]2(C)[C@@H](CC[C@@H]3[C@@H]2CC[C@]2(C)[C@@H](C(=O)Cn4ccc(C#N)n4)CC[C@@H]32)C1 [Compound 121]
IC50 [1]: 10 to 50 nM | efficacy: relative potentiation of GABA-mediated conductance, α1β2γ2 [2]: > 500% | efficacy: relative potentiation of GABA-mediated conductance, α4β3δ [3]: > 500%

C[C@@]1(O)CC[C@@]2(C)[C@@H](CC[C@@H]3[C@@H]2CC[C@]2(C)[C@@H](C(=O)Cn4cc(C#N)cn4)CC[C@@H]32)C1 [CV-10155]
EC50 [4]: 521 nM | EC50 [5]: 839 nM | EC50 [6]: 520 nM | EC50 [7]: 253 nM | EC50 [8]: 213 nM | EC50 [9]: 296 nM | EC50 [10]: 946 nM | EC50 [11]: 1820 nM | EC50 [12]: 273 nM | EC50 [13]: 204 nM | EC50 [14]: 1330 nM | EC50 [15]: 762 nM | EC50 [16]: 359 nM | EC50 [17]: 1300 nM | EC50 [18]: 359 nM | EC50 [19]: 1100 nM | EC50 [20]: 245 nM | modulating activity across the GABAA receptor subtypes tested [21]: some level of positive allosteric modulating activity in all of the GABAA receptor subtypes tested | EC50 ([22]; FLIPR, cells exposed to GABA plus compound, — = value not measurable): 106 nM | activity on α4β3δ compared with α1β2γ2 GABAA receptors, in words ([22]; data of Example 1): substantially more active on α4β3δ GABAA receptors than on α1β2γ2 GABAA receptors | EC50 for α4β3δ receptors lower than for α1β2γ2 receptors ([22]; isomerically pure composition, α4β3δ versus α1β2γ2): at least 5 fold

C[C@]1(O)CC[C@@]2(C)[C@@H](CC[C@@H]3[C@@H]2CC[C@]2(C)[C@@H](C(=O)Cn4cc(C#N)cn4)CC[C@@H]32)C1 [SPNC-019, reference compound]
EC50 [16]: 1200 nM | EC50 [17]: 1810 nM | EC50 [20]: 1770 nM | modulating activity across the GABAA receptor subtypes tested [21]: no modulating activity in 15 of the 18 GABAA receptor subtypes tested

From patent publication US10857163B1, “Compositions that preferentially potentiate subtypes of GABAA receptors and methods of use thereof” (priority 2019, dated 2020)
